In PubChem BioAssay (NCI) one finds TGI data, which are given here for 30 compounds.

SMILES strings stand for the structures.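 Step 1: Grow cells in 96-well plates. Step 2: Expose to compound for 48 hours at 5 concentrations. Step 3: Interpolate endpoints linearly; if unreached, use highest concentration. TGI is the concentration that stops growth completely.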 Where only a bound is given, the exact number is not on record here.

One experiment deals with HOP-62 NSCLC. The experiment in a line: NCI-60 cell line screen, 48 h.
For the compound `CCc1cccc(CC)c1NC(=O)/C(Cl)=C(/Cl)C(=O)O`, the TGI was greater than 100 µM.

As to `O=[N+]([O-])c1ccc(-c2ccc(C3=Nn4c(CNc5ccccc5Cl)nnc4SC3)o2)cc1`, the TGI was greater than 100 µM.

`CCCC(=O)CC(C)C(=O)C(=O)NC12CC3CC(CC(C3)C1)C2` (stereo not drawn) yielded a TGI greater than 100 µM.

For `CC(=O)OCC(=O)[C@@]1(O)CC[C@H]2[C@@H]3C[C@H](C)C4=CC(=O)C=C[C@]4(C)[C@@]3(F)[C@@H](O)C[C@@]21C`, the TGI is greater than 100 µM.

For the compound `Nc1nc(=S)c2c(ncn2CCO)[nH]1`, the TGI is greater than 100 µM.

In turn, `COc1cc(/C=C/c2csnn2)cc(OC)c1OC` yielded a TGI greater than 100 µM.

As for `c1ccc(C(c2ccccc2)c2ccccn2)cc1`, the TGI is greater than 100 µM.

Another experiment deals with KM12 colon. The experiment in a line: NCI-60 cell line screen, 48 h.
On to `CCOC(=O)C1=C(NC)OCC1=O`, for which the TGI is greater than 100 µM.

For `CCOC(=O)C1(C)CCC(C(C(=O)O)C(=O)O)CC1=O` (stereo not drawn), the TGI is greater than 100 µM.

Regarding `COC(=O)C1=C(C(=O)OC)C2(c3ccccc3)OC1(c1ccccc1)c1cc3ccccc3cc12`, the TGI was 3.97 µM.

Regarding `CC1NOC(=O)C1N=Nc1ccc(Cl)cc1Cl` (stereo not drawn), the TGI amounted to 32.6 µM.

As to `O=C1NC(=O)C2C(=O)NC(=O)C1C2Cc1ccco1` (stereo not drawn), the TGI was greater than 100 µM.

The compound `CCOC(=O)/C(=C/c1ccccn1)C(=O)c1ccccc1` returned a TGI of 26.4 µM.

Take `O=C(c1ccccc1)[C@H]1Nc2ccc(Cl)cc2[C@H]2CCC[C@@H]12`: the TGI is greater than 100 µM.

In the case of `COc1ccc2nc(NC(=O)C(=O)CC(=O)c3ccc([N+](=O)[O-])cc3)sc2c1`, the TGI is greater than 100 µM.

`CC(=O)Nc1ccc(C2CC(c3ccc([N+](=O)[O-])cc3)=Nc3ccccc3S2=O)cc1` (stereo not drawn) had a TGI of 35.1 µM.

For the compound `COc1cc(/C=C2\NC(=O)C(Cc3cc(OC)c(OC)c(C)c3OC)N(C(C)=O)C2=O)c(OC)c(C)c1OC` (stereo not drawn), the TGI is greater than 100 µM.

Turning to `C[C@H](C(=O)O)C(=O)NC(=O)N(Cc1ccccc1)N=O`, the TGI is greater than 100 µM.

Turning to `NNC(=O)C(=O)NN=C(C(Cl)(Cl)CO)C(Cl)(Cl)CO`, the TGI is greater than 100 µM.

Compound `COc1ccc(/C=C2\C(=O)N(NC(C)=O)c3ccccc32)cc1` returned a TGI greater than 100 µM.

For `O=C1N[C@@H]2CCCC[C@@H]2C12CCCCC2`, the TGI was greater than 100 µM.

The compound `COc1ccc2ccccc2c1C1=NC(C)(C)CO1` showed a TGI greater than 100 µM.

`NC1=NC(Cn2nc(-c3ccccc3)c3ccccc3c2=O)=NNC(=O)N1`: the TGI was greater than 100 µM.

The compound `O=C(CCCC(=O)Nc1ccc(Cl)cc1Cl)CC(=O)c1ccc2ccccc2c1` came in with a TGI greater than 100 µM.

Consider `O=C(NCCc1ccccc1)C1C(=O)C(=O)N(CCc2ccccc2)C1=O` (stereo not drawn), for which the TGI is greater than 100 µM.

`OC(c1ccccc1Br)(c1ccccc1Br)C(F)(F)F` gave a TGI of 30.9 µM.

In the case of `CC(=O)OC1COC(N2CCc3cc([N+](=O)[O-])ccc32)C(OC(C)=O)C1OC(C)=O` (stereo not drawn), the TGI was greater than 100 µM.

Compound `CCOC(=O)C1S(=O)(=O)OCCOS1(=O)=O` came in with a TGI greater than 100 µM.

`CC12OC(=O)C(C#N)C1(C)C1C(=O)CCCC12` (stereo not drawn) displayed a TGI greater than 100 µM.

`CCc1cccc(CC)c1NC(=O)/C(Cl)=C(/Cl)C(=O)O` came in with a TGI greater than 100 µM.

The compound `O=[N+]([O-])c1ccc(-c2ccc(C3=Nn4c(CNc5ccccc5Cl)nnc4SC3)o2)cc1` showed a TGI greater than 100 µM.

In turn, `CCCC(=O)CC(C)C(=O)C(=O)NC12CC3CC(CC(C3)C1)C2` (stereo not drawn) came in with a TGI greater than 100 µM.

`CC(=O)OCC(=O)[C@@]1(O)CC[C@H]2[C@@H]3C[C@H](C)C4=CC(=O)C=C[C@]4(C)[C@@]3(F)[C@@H](O)C[C@@]21C` registered a TGI greater than 100 µM.

Turning to `Nc1nc(=S)c2c(ncn2CCO)[nH]1`, the TGI is greater than 100 µM.

Take `COc1cc(/C=C/c2csnn2)cc(OC)c1OC`: the TGI is greater than 100 µM.

The compound `c1ccc(C(c2ccccc2)c2ccccn2)cc1` registered a TGI greater than 100 µM.

A further experiment has as its system SNB-75 CNS. Put plainly: NCI-60 cell line screen, 48 h.
In turn, `CCOC(=O)C1=C(NC)OCC1=O` gave a TGI greater than 100 µM.

With `CCOC(=O)C1(C)CCC(C(C(=O)O)C(=O)O)CC1=O` (stereo not drawn), the TGI was greater than 100 µM.

In turn, `COC(=O)C1=C(C(=O)OC)C2(c3ccccc3)OC1(c1ccccc1)c1cc3ccccc3cc12` yielded a TGI of 1.99 µM.

Compound `CC1NOC(=O)C1N=Nc1ccc(Cl)cc1Cl` (stereo not drawn) yielded a TGI of 46.5 µM.

As for `O=C1NC(=O)C2C(=O)NC(=O)C1C2Cc1ccco1` (stereo not drawn), the TGI was greater than 100 µM.

`CCOC(=O)/C(=C/c1ccccn1)C(=O)c1ccccc1` registered a TGI of 27.5 µM.

As to `O=C(c1ccccc1)[C@H]1Nc2ccc(Cl)cc2[C@H]2CCC[C@@H]12`, the TGI was greater than 100 µM.

`COc1ccc2nc(NC(=O)C(=O)CC(=O)c3ccc([N+](=O)[O-])cc3)sc2c1` yielded a TGI greater than 100 µM.

The compound `CC(=O)Nc1ccc(C2CC(c3ccc([N+](=O)[O-])cc3)=Nc3ccccc3S2=O)cc1` (stereo not drawn) had a TGI greater than 100 µM.

As to `COc1cc(/C=C2\NC(=O)C(Cc3cc(OC)c(OC)c(C)c3OC)N(C(C)=O)C2=O)c(OC)c(C)c1OC` (stereo not drawn), the TGI was greater than 100 µM.

Consider `C[C@H](C(=O)O)C(=O)NC(=O)N(Cc1ccccc1)N=O`, for which the TGI is greater than 100 µM.

With `NNC(=O)C(=O)NN=C(C(Cl)(Cl)CO)C(Cl)(Cl)CO`, the TGI is 86.8 µM.

As to `COc1ccc(/C=C2\C(=O)N(NC(C)=O)c3ccccc32)cc1`, the TGI came out at 93.8 µM.

In turn, `O=C1N[C@@H]2CCCC[C@@H]2C12CCCCC2` registered a TGI greater than 100 µM.

Turning to `COc1ccc2ccccc2c1C1=NC(C)(C)CO1`, the TGI was greater than 100 µM.

On to `NC1=NC(Cn2nc(-c3ccccc3)c3ccccc3c2=O)=NNC(=O)N1`, for which the TGI is greater than 100 µM.

`O=C(NCCc1ccccc1)C1C(=O)C(=O)N(CCc2ccccc2)C1=O` (stereo not drawn): the TGI was greater than 100 µM.

In the case of `OC(c1ccccc1Br)(c1ccccc1Br)C(F)(F)F`, the TGI is 85.2 µM.

On to `CC(=O)OC1COC(N2CCc3cc([N+](=O)[O-])ccc32)C(OC(C)=O)C1OC(C)=O` (stereo not drawn), for which the TGI was greater than 100 µM.

With `CCOC(=O)C1S(=O)(=O)OCCOS1(=O)=O`, the TGI is greater than 100 µM.

Turning to `CC12OC(=O)C(C#N)C1(C)C1C(=O)CCCC12` (stereo not drawn), the TGI was greater than 100 µM.

As for `CCc1cccc(CC)c1NC(=O)/C(Cl)=C(/Cl)C(=O)O`, the TGI is greater than 81.6 µM.

With `O=[N+]([O-])c1ccc(-c2ccc(C3=Nn4c(CNc5ccccc5Cl)nnc4SC3)o2)cc1`, the TGI was greater than 100 µM.

For the compound `CCCC(=O)CC(C)C(=O)C(=O)NC12CC3CC(CC(C3)C1)C2` (stereo not drawn), the TGI was greater than 100 µM.

In turn, `CC(=O)OCC(=O)[C@@]1(O)CC[C@H]2[C@@H]3C[C@H](C)C4=CC(=O)C=C[C@]4(C)[C@@]3(F)[C@@H](O)C[C@@]21C` registered a TGI greater than 100 µM.

`Nc1nc(=S)c2c(ncn2CCO)[nH]1` had a TGI greater than 100 µM.

`c1ccc(C(c2ccccc2)c2ccccn2)cc1` registered a TGI greater than 100 µM.

The next experiment relates to UO-31 renal. The experiment in a line: NCI-60 cell line screen, 48 h.
As for `CCOC(=O)C1=C(NC)OCC1=O`, the TGI was greater than 100 µM.

Regarding `CCOC(=O)C1(C)CCC(C(C(=O)O)C(=O)O)CC1=O` (stereo not drawn), the TGI is greater than 100 µM.

In turn, `COC(=O)C1=C(C(=O)OC)C2(c3ccccc3)OC1(c1ccccc1)c1cc3ccccc3cc12` had a TGI of 2.77 µM.

As for `CC1NOC(=O)C1N=Nc1ccc(Cl)cc1Cl` (stereo not drawn), the TGI was determined as 51 µM.

Regarding `O=C1NC(=O)C2C(=O)NC(=O)C1C2Cc1ccco1` (stereo not drawn), the TGI was greater than 100 µM.

`CCOC(=O)/C(=C/c1ccccn1)C(=O)c1ccccc1` gave a TGI of 30 µM.

Consider `O=C(c1ccccc1)[C@H]1Nc2ccc(Cl)cc2[C@H]2CCC[C@@H]12`, for which the TGI is greater than 100 µM.

Take `COc1ccc2nc(NC(=O)C(=O)CC(=O)c3ccc([N+](=O)[O-])cc3)sc2c1`: the TGI is greater than 100 µM.

Compound `CC(=O)Nc1ccc(C2CC(c3ccc([N+](=O)[O-])cc3)=Nc3ccccc3S2=O)cc1` (stereo not drawn) yielded a TGI of 46.5 µM.

`COc1cc(/C=C2\NC(=O)C(Cc3cc(OC)c(OC)c(C)c3OC)N(C(C)=O)C2=O)c(OC)c(C)c1OC` (stereo not drawn): the TGI is greater than 100 µM.

`C[C@H](C(=O)O)C(=O)NC(=O)N(Cc1ccccc1)N=O` came in with a TGI greater than 100 µM.

Turning to `NNC(=O)C(=O)NN=C(C(Cl)(Cl)CO)C(Cl)(Cl)CO`, the TGI is greater than 100 µM.

Consider `COc1ccc(/C=C2\C(=O)N(NC(C)=O)c3ccccc32)cc1`, for which the TGI is greater than 100 µM.

Compound `O=C1N[C@@H]2CCCC[C@@H]2C12CCCCC2` showed a TGI greater than 100 µM.

Regarding `COc1ccc2ccccc2c1C1=NC(C)(C)CO1`, the TGI is greater than 100 µM.

On to `NC1=NC(Cn2nc(-c3ccccc3)c3ccccc3c2=O)=NNC(=O)N1`, for which the TGI is greater than 100 µM.

`O=C(CCCC(=O)Nc1ccc(Cl)cc1Cl)CC(=O)c1ccc2ccccc2c1` registered a TGI greater than 100 µM.

`O=C(NCCc1ccccc1)C1C(=O)C(=O)N(CCc2ccccc2)C1=O` (stereo not drawn) had a TGI greater than 100 µM.

For the compound `OC(c1ccccc1Br)(c1ccccc1Br)C(F)(F)F`, the TGI worked out at 75.1 µM.

The compound `CC(=O)OC1COC(N2CCc3cc([N+](=O)[O-])ccc32)C(OC(C)=O)C1OC(C)=O` (stereo not drawn) displayed a TGI greater than 100 µM.

As to `CCOC(=O)C1S(=O)(=O)OCCOS1(=O)=O`, the TGI was greater than 100 µM.

Compound `CC12OC(=O)C(C#N)C1(C)C1C(=O)CCCC12` (stereo not drawn) yielded a TGI greater than 100 µM.

In turn, `Cc1nc2ccccc2c(=O)n1/N=C(\N=Nc1ccccc1Cl)c1ccccc1Cl` displayed a TGI greater than 100 µM.

With `CCc1cccc(CC)c1NC(=O)/C(Cl)=C(/Cl)C(=O)O`, the TGI was 47.3 µM.

The compound `O=[N+]([O-])c1ccc(-c2ccc(C3=Nn4c(CNc5ccccc5Cl)nnc4SC3)o2)cc1` had a TGI greater than 100 µM.

On to `CCCC(=O)CC(C)C(=O)C(=O)NC12CC3CC(CC(C3)C1)C2` (stereo not drawn), for which the TGI was greater than 100 µM.

For the compound `CC(=O)OCC(=O)[C@@]1(O)CC[C@H]2[C@@H]3C[C@H](C)C4=CC(=O)C=C[C@]4(C)[C@@]3(F)[C@@H](O)C[C@@]21C`, the TGI was greater than 100 µM.

For `Nc1nc(=S)c2c(ncn2CCO)[nH]1`, the TGI is greater than 100 µM.

The compound `COc1cc(/C=C/c2csnn2)cc(OC)c1OC` gave a TGI greater than 100 µM.

With `c1ccc(C(c2ccccc2)c2ccccn2)cc1`, the TGI was greater than 100 µM.
